Experimental data taken from US20220324835A1 (Nurix Therapeutics, Inc., priority 2018, published 2022).

Experiments:
Cbl-b [1] = target: T1, Cbl-b (Homo sapiens, UniProt Q13191); assay: Cbl-b inhibition assay (Cbl-b activity assay, FRET, Biological Example 1; 100 mM NaCl, 60 nM Src kinase); type: biochemical; details: upper bound stated in text lists; read-out: IC50 values in the Cbl-b inhibition assay of Biological Example 1
Outline: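 Steps: Src kinase phosphorylates N-terminal biotinylated Avi-tagged Cbl-b; phosphorylated Cbl-b binds Bodipy-fluorescein ubiquitin-loaded UbcH5B; streptavidin-terbium on Cbl-b sits close to the fluorescein label, producing FRET. Inhibitors block UbcH5B-Ub binding.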

T-cell [2] = assay: IL-2 secretion from T-cells co-stimulated with anti-CD3 and anti-CD28 antibody (Biological Example 2); type: cell-based, human; details: Homo sapiens, T-cell, primary human total T-cells, baseline = anti-CD3/anti-CD28 stimulated cells without inhibitor, read-out: IL-2 secretion, Anti-CD3/Anti-CD28 stimulation, fold change over baseline; for fold induction at 0.3 µM: 0.3 μM compound; for fold induction at 1 µM: 1 μM compound
Outline: (§1)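 No assay protocol given; T-cells stimulated with anti-CD3 alone or anti-CD3 plus anti-CD28, with or without Cbl-b inhibitor. Activation read as IL-2 secretion or CD25 surface staining, expressed as fold over baseline from uninhibited cells […].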

T-cell [3] = assay: CD25 cell surface staining on T-cells co-stimulated with anti-CD3 and anti-CD28 antibody (Biological Example 2); type: cell-based, human; details: Homo sapiens, T-cell, primary human total T-cells, baseline = anti-CD3/anti-CD28 stimulated cells without inhibitor, read-out: CD25 staining, Anti-CD3/Anti-CD28 stimulation, fold change over baseline; for fold induction at 0.3 µM: 0.3 μM compound; for fold induction at 1 µM: 1 μM compound
Outline: as §1

Cbl-b [4] = target: T1, Cbl-b; assay: Cbl-b activity assay (Cbl-b inhibition assay), TR-FRET of Cbl-b interaction with UbcH5B-Ub; type: biochemical; details: assay buffer with 100 mM NaCl, 60 nM Src kinase; read-out: Cbl-b activity IC50
Outline: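 TR-FRET readout of Cbl-b binding to Bodipy-fluorescein N-terminally labeled Ub conjugated to UbcH5B C85K, measured with compound present. After compound incubation, 60 nM Src kinase with 1 mM ATP and 5 mM MgCl2 (final) was added for 1.5 h, then a further 1 h incubation; asterisked values used 50 mM NaCl buffer and 30 nM Src.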

T-cell [5] = assay: IL-2 secretion from T-cells stimulated with anti-CD3 antibody alone (Biological Example 2); type: cell-based; details: primary human total T-cells, read-out: IL-2 secretion, Anti-CD3 stimulation, fold change over baseline; for fold induction at 1 µM: 1 μM compound
T-cell [6] = assay: CD25 cell surface staining on T-cells stimulated with anti-CD3 antibody alone (Biological Example 2); type: cell-based; details: primary human total T-cells, baseline = anti-CD3/anti-CD28 stimulated cells without inhibitor, read-out: CD25 staining, Anti-CD3 stimulation, fold change over baseline; for fold induction at 1 µM: 1 μM compound

T1 sequence (Q13191 36-427): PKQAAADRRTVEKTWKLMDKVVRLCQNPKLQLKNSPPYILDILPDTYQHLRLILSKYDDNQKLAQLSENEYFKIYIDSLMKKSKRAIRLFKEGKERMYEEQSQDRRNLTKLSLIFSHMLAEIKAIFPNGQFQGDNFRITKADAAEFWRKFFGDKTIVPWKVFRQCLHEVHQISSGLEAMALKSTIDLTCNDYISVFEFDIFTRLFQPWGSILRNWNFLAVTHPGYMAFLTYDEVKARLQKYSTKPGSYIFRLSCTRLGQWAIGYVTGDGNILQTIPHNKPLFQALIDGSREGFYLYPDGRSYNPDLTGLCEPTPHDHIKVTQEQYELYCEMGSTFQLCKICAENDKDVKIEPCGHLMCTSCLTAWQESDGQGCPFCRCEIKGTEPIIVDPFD

SMILES | IC50 (Cbl-b [1]) [nM] | fold induction at 0.3 µM (T-cell [2]) | fold induction at 1 µM (T-cell [2]) | fold induction at 0.3 µM (T-cell [3]) | fold induction at 1 µM (T-cell [3]) | IC50 (Cbl-b [4]) [nM] | fold induction at 1 µM (T-cell [5]) | fold induction at 1 µM (T-cell [6]) | fold induction at 4 µM (T-cell [2]; 4 μM compound) | fold induction at 4 µM (T-cell [3]; 4 μM compound) | fold induction at 8 µM (T-cell [5]; 8 μM compound) | fold induction at 8 µM (T-cell [6]; 8 μM compound)
Cn1cnnc1CC1(c2cccc(N3Cc4c(cc(CN5CCOCC5)cc4C(F)(F)F)C3=O)c2)COC1 [Compound 431, 2-(3-{3-[(4-methyl-4H-1,2,4-triazol-3-yl)methyl]oxetan-3-yl}phenyl)-6-[(morpholin-4-yl)methyl]-4-(trifluoromethyl)-2,3-dihydro-1H-isoindol-1-one] | ≤ 100 | 2.51 to 5 | > 7.5 | 1.31 to 1.5 | 1.31 to 1.5 | < 100 | > 0.201 | > 1 | – | – | – | –
Cn1cnnc1CC1(c2cccc(NC(=O)c3cc(CN4C[C@H]5C[C@H]5C4)cc(C4CC4)n3)c2)COC1 [Compound 498, 4-{3-azabicyclo[3.1.0]hexan-3-ylmethyl}-6-cyclopropyl-N-(3-{3-[(4-methyl-1,2,4-triazol-3-yl)methyl]oxetan-3-yl}phenyl)pyridine-2-carboxamide] | ≤ 100 | > 7.5 | > 7.5 | 1.31 to 1.5 | 1.31 to 1.5 | < 100 | > 0.201 | > 1 | – | – | – | –
Cn1cnnc1CC1(c2cccc(N3Cc4c(cc(CC5CCCO5)cc4C(F)(F)F)C3=O)c2)COC1 (stereo not drawn) [Compound 529, 2-(3-(3-((4-methyl-4H-1,2,4-triazol-3-yl)methyl)oxetan-3-yl)phenyl)-6-((THF-2-yl)methyl)-4-(trifluoromethyl)isoindolin-1-one] | ≤ 100 | 2.51 to 5 | > 7.5 | 1.01 to 1.3 | 1.01 to 1.3 | < 100 | 0.101 to 0.15 | 0.801 to 1 | – | – | – | –
C[C@H](Cc1nncn1C)c1cc(N[C@@H](C)CO)nc(N2Cc3c(cccc3C(F)(F)F)C2=O)c1 [Compound 365, 2-(6-((S)-1-hydroxypropan-2-ylamino)-4-((R)-1-(4-methyl-4H-1,2,4-triazol-3-yl)propan-2-yl)pyridin-2-yl)-4-(trifluoromethyl)isoindolin-1-one] | ≤ 300 | 1.01 to 2.5 | 1.01 to 2.5 | 1.01 to 1.3 | 1.01 to 1.3 | 100 to 300 | 0.051 to 0.1 | 0.601 to 0.8 | 2.51 to 5 | 1.01 to 1.3 | 0.151 to 0.2 | > 1
Cc1cc(C(=O)Nc2cccc(C3(Cc4nocc4C)COC3)c2)nc(C2CC2)n1 [Compound 509, 2-cyclopropyl-6-methyl-N-(3-{3-[(4-methyl-1,2-oxazol-3-yl)methyl]oxetan-3-yl}phenyl)pyrimidine-4-carboxamide] | ≤ 100 | > 7.5 | > 7.5 | 1.31 to 1.5 | 1.31 to 1.5 | < 100 | > 0.201 | > 1 | – | – | – | –
Cn1cnnc1CC1(c2cccc(N3Cc4c(cc(CN5CCCC6CC65)cc4C(F)(F)F)C3=O)c2)COC1 (stereo not drawn) [Compound 490, 6-((2-azabicyclo[4.1.0]heptan-2-yl)methyl)-2-(3-(3-((4-methyl-4H-1,2,4-triazol-3-yl)methyl)oxetan-3-yl)phenyl)-4-(trifluoromethyl)isoindolin-1-one] | ≤ 100 | > 7.5 | > 7.5 | 1.01 to 1.3 | 1.01 to 1.3 | < 100 | > 0.201 | > 1 | – | – | – | –
CN1CCC(=O)C(Cc2cc3c(c(C(F)(F)F)c2)CN(c2cccc(C4(Cc5nncn5C)COC4)c2)C3=O)C1 (stereo not drawn) [Compound 531, 6-((l-methyl-4-oxopiperidin-3-yl)methyl)-2-(3-(3-((4-methyl-4H-1,2,4-triazol-3-yl)methyl)oxetan-3-yl)phenyl)-4-(trifluoromethyl)isoindolin-1-one] | ≤ 100 | > 7.5 | > 7.5 | 1.01 to 1.3 | 1.01 to 1.3 | < 100 | > 0.201 | > 1 | – | – | – | –
